Assay results published in patent publication US20230339939A1 (Bayer Aktiengesellschaft, priority 2020, published 2023).
Where two headings read alike, the source gives them in different places.

Columns and labels:
Format in all cases: biochemical
CSNK1A1 [1] = target: T1, CSNK1A1 (Homo sapiens (Human), UniProt P48729); assay: CSNK1A1 High ATP Assay (ADP-Glo, 1 mM ATP); settings: median, read-out: CSNK1A1 high ATP assay IC50 [mol/l] (median)
Protocol: CSNK1A1-inhibitory activity of compounds of the present invention in presence of 1 mM adenosine-tri-phosphate (ATP) was quantified employing the CSNK1A1-high-ATP-assay as described in the following paragraphs. In essence, the enzyme activity is measured by quantification of the adenosine-di-phosphate (ADP), which is generated as a co-product of the enzyme reaction, via the “ADP-Glo™ Kinase Assay” kit from the company Promega. This detection system works as follows: In a first step the ATP not consumed in the kinase reaction is quantitatively converted to cAMP employing an adenylate cyclase (“ADP-Glo-reagent”), then the adenylate cyclase is stopped and the ADP generated in the kinase reaction converted to ATP which generates in a luciferase-based reaction a glow-luminescence signal (“Kinase Detection Reagent”).
(§1) Recombinant fusion protein of N-terminal Glutathion-S-Transferase (GST) and full-length human CSNK1A1, expressed by baculovirus infected insect cells and purified via Glutathion affinity chromatography, was purchased from Life Technologies (product no. PV4174) and used as enzyme. As substrate for the kinase reaction the biotinylated peptide biotin-Ahx-KRRRAL-pS-VASLPGL (C-terminus in amide form) was used which can be purchased e.g. from the company Biosyntan (Berlin-Buch, Germany).
For the assay 50 nl of a 100 fold concentrated solution of the test compound in DMSO was pipetted into a white low volume 384-well microtiter plate (Greiner Bio-One, Frickenhausen, Germany), 2 μL of a solution of CSNK1A1 in aqueous assay buffer [50 mM HEPES pH 7.5, 10% (v/v) glycerol, 10 mM MgCl2, 50 mM NaCl, 1 mM dithiothreitol, 0.01% (w/v) bovine serum albumin, 0.01% (v/v) Triton X-100] were added and the mixture was incubated for 15 min at 22° C. to allow pre-binding of the test compounds to the enzyme before the start of the kinase reaction. […] The concentration of CSNK1A1 was adjusted depending of the activity of the enzyme lot and was chosen appropriate to have the assay in the linear range, a typical concentration is about 0.4 ng/μL. The reaction was stopped by the addition of 2.5 μL of “ADP-Glo-reagent” (1:1.5 fold diluted with water) and the resulting mixture was incubated at 22° C. for 1 h to convert the ATP not consumed in the kinase reaction completely […]. Subsequently 2.5 μL of the “kinase detection reagent” (1.2 fold more concentrated than recommended by the producer) were added, the resulting mixture was incubated at 22° C. for 1 h and then the luminescence measured with a suitable measurement instrument (e.g. Viewlux™ from Perkin-Elmer). The amount of emitted light was taken as a measure for the amount of ADP generated and thereby for the activity of the CSNK1A1.

[2] = target: wild-type Epidermal Growth Factor Receptor (EGFR) (Homo sapiens (Human), UniProt P00533); assay: WT-EGFR Kinase Assay (TR-FRET, 2 mM ATP)
Chain of wild-type Epidermal Growth Factor Receptor (EGFR) (P00533 669-1210): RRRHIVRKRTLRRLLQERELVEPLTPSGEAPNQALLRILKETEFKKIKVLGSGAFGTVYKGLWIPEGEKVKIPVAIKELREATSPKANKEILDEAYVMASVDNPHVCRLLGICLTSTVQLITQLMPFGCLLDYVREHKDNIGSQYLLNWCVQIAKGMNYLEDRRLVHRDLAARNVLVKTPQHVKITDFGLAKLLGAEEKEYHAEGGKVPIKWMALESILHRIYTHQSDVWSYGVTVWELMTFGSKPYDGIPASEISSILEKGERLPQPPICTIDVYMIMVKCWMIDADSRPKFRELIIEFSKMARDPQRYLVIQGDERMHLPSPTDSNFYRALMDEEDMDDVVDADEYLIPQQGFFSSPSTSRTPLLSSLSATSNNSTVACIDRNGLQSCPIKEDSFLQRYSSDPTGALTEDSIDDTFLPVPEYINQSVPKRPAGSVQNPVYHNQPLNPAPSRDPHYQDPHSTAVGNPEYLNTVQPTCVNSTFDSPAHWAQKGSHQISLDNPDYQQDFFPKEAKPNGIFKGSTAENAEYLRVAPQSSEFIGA
Excerpt: Inhibitory activity of compounds of the present invention against wild-type Epidermal Growth Factor Receptor (EGFR) was quantified employing the TR-FRET based EGFR assay as described in the following paragraphs.
Recombinant fusion protein of N-terminal Glutathion-S-Transferase (GST) and a fragment of human EGFR (amino acids R669 to A1210), expressed in Sf9 insect cells and purified via affinity chromatography using Glutathion Sepharose as described above, was used as kinase. As substrate for the kinase reaction the biotinylated peptide biotin-Ahx-[…] (C-terminus in amide form) was used which can be purchased e.g. form the company Biosynthan GmbH (Berlin-Buch, Germany).
For the assay 50 nl of a 100 fold concentrated solution of the test compound in DMSO was pipetted into either a black low volume 384 well microtiter plate or a black 1536 well microtiter plate (both Greiner Bio-One, Frickenhausen, Germany), 2 μL of a solution of EGFR in aqueous assay buffer [50 mM Hepes pH 7.0, 10 mM MgCl2, 1 mM dithiothreitol, 0.5 mM EGTA, 0.3 mM activated sodium ortho-vanadate, 0.005% (w/v) bovine serum albumin, 0.005% (v/v) Tween-20] were added and the mixture was incubated for 15 min at 22° C. to allow pre-binding of the test compounds to the enzyme before the start of the kinase reaction. […] The concentration of EGFR was adjusted depending of the activity of the enzyme lot and was chosen appropriate to have the assay in the linear range, typical concentration was 7.6 pg/μL. The reaction was stopped by the addition of 3 μL of a solution of HTRF detection reagents (83.3 nM streptavidine-XL665 [Cisbio Bioassays, Codolet, France] and 1.67 nM PT66-Tb-Cryptate, a terbium-cryptate labelled anti-phospho-tyrosine antibody from Cisbio Bioassays [instead of the PT66-Tb-cryptate PT66-Eu-Chelate from Perkin Elmer can also be used]) in an aqueous EDTA-solution (133.3 mM EDTA, 0.2% (w/v) bovine serum albumin in 50 mM HEPES pH 7.5).
The resulting mixture was incubated 1 h at 22° C. to allow the binding of the biotinylated phosphorylated peptide to the streptavidine-XL665 and the PT66-Tb-Cryptate. Subsequently the amount of phosphorylated substrate was evaluated by measurement of the resonance energy transfer from the PT66-Tb-Cryptate to the streptavidine-XL665. Therefore, the fluorescence emissions at 620 nm and 665 nm after excitation at 337 nm were measured in a HTRF reader, e.g. a Pherastar (BMG Labtechnologies, Offenburg, Germany) or a Viewlux (Perkin-Elmer). The ratio of the emissions at 665 nm and at 622 nm was taken as the measure for the amount of phosphorylated substrate.

CSNK1A1 [3] = target: T1, CSNK1A1; assay: CSNK1A1 Assay 2 (ADP-Glo, 1 μM ATP, substrate biotin-Ahx-KRRRAL-pS-VASLPGL); settings: median, read-out: CSNK1A1 Assay 2 IC50 [mol/l] (median)
Protocol: CSNK1A1-inhibitory activity of compounds of the present invention in presence of 1 μM adenosine-tri-phosphate (ATP) was quantified employing the CSNK1A1 assay as described in the following paragraphs. In essence, the enzyme activity is measured by quantification of the adenosine-di-phosphate (ADP), which is generated as a co-product of the enzyme reaction, via the “ADP-Glo™ Kinase Assay” kit from the company Promega. This detection system works as follows: In a first step the ATP not consumed in the kinase reaction is quantitatively converted to cAMP employing an adenylate cyclase (“ADP-Glo-reagent”), then the adenylate cyclase is stopped and the ADP generated in the kinase reaction converted to ATP which generates in a luciferase-based reaction a glow-luminescence signal (“Kinase Detection Reagent”).
as §1
For the assay 50 nl of a 100 fold concentrated solution of the test compound in DMSO was pipetted into a white 1536-well microtiter plate (Greiner Bio-One, Frickenhausen, Germany), 2 μL of a solution of CSNK1A1 in aqueous assay buffer [50 mM HEPES pH 7.5, 10% (v/v) glycerol, 10 mM MgCl2, 50 mM NaCl, 1 mM dithiothreitol, 0.01% (w/v) bovine serum albumin, 0.01% (v/v) Triton X-100] were added and the mixture was incubated for 15 min at 22° C. to allow pre-binding of the test compounds to the enzyme before the start of the kinase reaction. […] The concentration of CSNK1A1 was adjusted depending of the activity of the enzyme lot and was chosen appropriate to have the assay in the linear range, a typical concentrations are about 0.0375 ng/μL. The reaction was stopped by the addition of 2.5 μL of “ADP-Glo-reagent” (1:1.5 fold diluted with water) and the resulting mixture was incubated at 22° C. for 1 h to convert the ATP not consumed in the kinase reaction completely […]. Subsequently 2.5 μL of the “kinase detection reagent” (1.2 fold more concentrated than recommended by the producer) were added, the resulting mixture was incubated at 22° C. for 1 h and then the luminescence measured with a suitable measurement instrument (e.g. Viewlux™ from Perkin-Elmer). The amount of emitted light was taken as a measure for the amount of ADP generated and thereby for the activity of the CSNK1A1.

CSNK1D = CSNK1D (Homo sapiens (Human), UniProt P48730); assay: CSNK1D Assay (ADP-Glo, 1 μM ATP); settings: median, read-out: CSNK1D IC50 [mol/l] (median)
Chain of CSNK1D (P48730 whole entry): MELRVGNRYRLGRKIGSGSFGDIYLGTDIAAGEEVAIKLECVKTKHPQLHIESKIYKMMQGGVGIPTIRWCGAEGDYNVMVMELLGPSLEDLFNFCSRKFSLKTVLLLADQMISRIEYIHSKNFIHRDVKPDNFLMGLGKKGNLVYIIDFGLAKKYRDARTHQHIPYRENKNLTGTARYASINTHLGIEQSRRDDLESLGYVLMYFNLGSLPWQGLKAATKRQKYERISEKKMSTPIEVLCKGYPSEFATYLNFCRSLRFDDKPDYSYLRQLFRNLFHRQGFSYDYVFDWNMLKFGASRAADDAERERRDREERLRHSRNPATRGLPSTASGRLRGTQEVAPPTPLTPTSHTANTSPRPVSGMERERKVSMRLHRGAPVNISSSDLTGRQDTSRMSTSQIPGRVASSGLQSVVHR
Protocol: CSNK1D-inhibitory activity of compounds of the present invention in presence of 1 μM adenosine-tri-phosphate (ATP) was quantified employing the CSNK1 D assay as described in the following paragraphs. In essence, the enzyme activity is measured by quantification of the adenosine-di-phosphate (ADP), which is generated as a co-product of the enzyme reaction, via the “ADP-Glo™ Kinase Assay” kit from the company Promega. This detection system works as follows: In a first step the ATP not consumed in the kinase reaction is quantitatively converted to cAMP employing an adenylate cyclase (“ADP-Glo-reagent”), then the adenylate cyclase is stopped and the ADP generated in the kinase reaction converted to ATP which generates in a luciferase-based reaction a glow-luminescence signal (“Kinase Detection Reagent”).
as §1, with “CSNK1D,” for “CSNK1A1,”, “PV3665)” for “PV4174)”, “Btn-Ahx-[…]” for “biotin-Ahx-KRRRAL-pS-VASLPGL”
For the assay 50 nl of a 100 fold concentrated solution of the test compound in DMSO was pipetted into a white 1536-well microtiter plate (Greiner Bio-One, Frickenhausen, Germany), 2 μL of a solution of CSNK1D in aqueous assay buffer [50 mM HEPES pH 7.5, 10% (v/v) glycerol, 10 mM MgCl2, 50 mM NaCl, 1 mM dithiothreitol, 0.01% (w/v) bovine serum albumin, 0.01% (v/v) Triton X-100] were added and the mixture was incubated for 15 min at 22° C. to allow pre-binding of the test compounds to the enzyme before the start of the kinase reaction. […] The concentration of CSNK1D was adjusted depending of the activity of the enzyme lot and was chosen appropriate to have the assay in the linear range, a typical concentration is about 0.5 ng/μL. The reaction was stopped by the addition of 2.5 μL of “ADP-Glo-reagent” (1:1.5 fold diluted with water) and the resulting mixture was incubated at 22° C. for 1 h to convert the ATP not consumed in the kinase reaction completely […]. Subsequently 2.5 μL of the “kinase detection reagent” (1.2 fold more concentrated than recommended by the producer) were added, the resulting mixture was incubated at 22° C. for 1 h and then the luminescence measured with a suitable measurement instrument (e.g. Viewlux™ from Perkin-Elmer). The amount of emitted light was taken as a measure for the amount of ADP generated and thereby for the activity of the CSNK1D.

[4] = read-out: EGFR Wildtype 2 mM ATP IC50 [mol/l] (median)

T1 sequence (P48729 whole entry): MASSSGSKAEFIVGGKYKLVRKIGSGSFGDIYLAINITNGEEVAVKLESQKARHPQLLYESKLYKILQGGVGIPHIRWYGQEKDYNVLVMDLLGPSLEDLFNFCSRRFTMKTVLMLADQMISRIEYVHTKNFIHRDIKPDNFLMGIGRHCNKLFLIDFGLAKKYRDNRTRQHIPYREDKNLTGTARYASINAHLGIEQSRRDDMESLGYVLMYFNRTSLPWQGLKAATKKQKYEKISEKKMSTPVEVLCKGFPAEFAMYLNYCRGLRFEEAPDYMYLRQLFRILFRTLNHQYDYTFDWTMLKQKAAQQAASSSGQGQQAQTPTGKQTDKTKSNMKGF

SMILES | IC50 (CSNK1A1 [1]) | IC50 [2, 4] | IC50 (CSNK1A1 [3]) | IC50 (CSNK1D) | IC50 ([2]; median)
CC(C(=O)Nc1cc(-c2[nH]c3cccnc3c2-c2ccccc2)ccn1)c1ccc(F)cc1 (single isomer, unassigned; (+)) [Example 13, (+)-2-(4-fluorophenyl)-N-[4-(3-phenyl-1H-pyrrolo[3,2-b]pyridin-2-yl)pyridin-2-yl]propanamide] | 91.6 nM | > 20 µM | 1.66 nM | – | –
CC(C(=O)Nc1cc(-c2[nH]c3ccc(F)nc3c2-c2ccc(F)cn2)ccn1)c1ccc(F)cc1 (single isomer, unassigned; (+)) [Example 48, (+)-N-{4-[5-fluoro-3-(5-fluoropyridin-2-yl)-1H-pyrrolo[3,2-b]pyridin-2-yl]pyridin-2-yl}-2-(4-fluorophenyl)propanamide] | 36.1 nM | – | 1.69 nM | 3.96 nM | –
CC(C(=O)Nc1cc(-c2[nH]c3cccnc3c2-c2ccccc2)ccn1)c1ccc(F)cc1 (single isomer, unassigned; (-)) [Example 12, (−)-2-(4-fluorophenyl)-N-[4-(3-phenyl-1H-pyrrolo[3,2-b]pyridin-2-yl)pyridin-2-yl]propanamide] | 2510 nM | – | 37 nM | – | > 20 µM
CC(C(=O)Nc1cc(-c2[nH]c3ccc(F)nc3c2-c2ccc(F)cn2)ccn1)c1ccc(F)cc1 (single isomer, unassigned; (-)) [Example 49, (−)-N-{4-[5-fluoro-3-(5-fluoropyridin-2-yl)-1H-pyrrolo[3,2-b]pyridin-2-yl]pyridin-2-yl}-2-(4-fluorophenyl)propanamide] | 2580 nM | – | 34.5 nM | 33.1 nM | –
O=C(Cc1ccc(F)cc1)Nc1cc(-c2[nH]c3nccnc3c2-c2ccccc2)ccn1 [Example 18, 2-(4-fluorophenyl)-N-[4-(7-phenyl-5H-pyrrolo[2,3-b]pyrazin-6-yl)pyridin-2-yl]acetamide] | 260 nM | > 20 µM | 3.33 nM | – | –
O=C(Cc1ccc(F)cc1)Nc1cc(-c2[nH]c3nccnc3c2-c2ccccn2)ccn1 [Example 19, 2-(4-fluorophenyl)-N-{4-[7-(pyridin-2-yl)-5H-pyrrolo[2,3-b]pyrazin-6-yl]pyridin-2-yl}acetamide] | 33.1 nM | > 20 µM | 1.02 nM | – | –
O=C(Cc1ccc(F)cc1)Nc1cc(-c2[nH]c3ccnnc3c2-c2ccccc2)ccn1 [Example 20, 2-(4-fluorophenyl)-N-[4-(7-phenyl-5H-pyrrolo[3,2-c]pyridazin-6-yl)pyridin-2-yl]acetamide] | 77.9 nM | > 20 µM | 1.3 nM | – | –
O=C(Cc1ccc(F)cc1)Nc1cc(-c2[nH]c3ccc(F)nc3c2-c2ccc(F)cn2)ccn1 [Example 50, N-{4-[5-fluoro-3-(5-fluoropyridin-2-yl)-1H-pyrrolo[3,2-b]pyridin-2-yl]pyridin-2-yl}-2-(4-fluorophenyl)acetamide] | 41.6 nM | – | 1.42 nM | 3.15 nM | –
